From the supplement of paper PMC10307832

Tests used:
Assay in all cases: relative viability (nuclei count vs DMSO), 5 days (fraction); higher = more cells survive
[1] = compound: CN(C)CC1=CC(=CC=C1)N=C(C2=CC=CC=C2)C3=C(NC4=C3C=CC(=C4)C(=O)N(C)C)O + CC(=O)c1c(C)c2cnc(Nc3ccc(N4CCNCC4)cn3)nc2n(C2CCCC2)c1=O [Palbociclib] (partner 0.5 µM)
In short: (§1)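 Dosing by pin tool came one day after lung cancer cell lines were seeded in 1536-well plates, using either one drug or a fixed anchor-drug dose plus five library-drug doses (not always all listed) in √10 steps. After 5 days, nuclei were counted on 4× images. Relative viability is treated-well nuclei count divided by vehicle-well nuclei count, and values are medians of duplicate plates.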

[2] = compound: CN(C)CC1=CC(=CC=C1)N=C(C2=CC=CC=C2)C3=C(NC4=C3C=CC(=C4)C(=O)N(C)C)O + Cc1nc(Nc2ncc(C(=O)Nc3c(C)cccc3Cl)s2)cc(N2CCN(CCO)CC2)n1 [Dasatinib] (partner 0.075 µM)
In short: as §1

[3] = compound: CN(C)CC1=CC(=CC=C1)N=C(C2=CC=CC=C2)C3=C(NC4=C3C=CC(=C4)C(=O)N(C)C)O + Nc1nc2[nH]cc(CCc3ccc(C(=O)N[C@@H](CCC(=O)O)C(=O)O)cc3)c2c(=O)[nH]1 [Pemetrexed] (partner 0.2 µM)
In short: as §1

[4] = compound: CN(C)CC1=CC(=CC=C1)N=C(C2=CC=CC=C2)C3=C(NC4=C3C=CC(=C4)C(=O)N(C)C)O + O=C(CCCCCCC(=O)Nc1ccccc1)NO [Vorinostat] (partner 1 µM)
In short: as §1

| Cell Line | relative viability ([1]; first compound 0.08 µM) | relative viability ([1]; first compound 0.253 µM) | relative viability ([1]; first compound 0.8 µM) | relative viability ([1]; first compound 2.53 µM) | relative viability ([1]; first compound 8 µM) | relative viability ([2]; first compound 0.08 µM) | relative viability ([2]; first compound 0.253 µM) | relative viability ([2]; first compound 0.8 µM) | relative viability ([2]; first compound 2.53 µM) | relative viability ([2]; first compound 8 µM) | relative viability ([3]; first compound 0.08 µM) | relative viability ([3]; first compound 0.253 µM) | relative viability ([3]; first compound 0.8 µM) | relative viability ([3]; first compound 2.53 µM) | relative viability ([3]; first compound 8 µM) | relative viability ([4]; first compound 0.08 µM) | relative viability ([4]; first compound 0.253 µM) | relative viability ([4]; first compound 0.8 µM) | relative viability ([4]; first compound 2.53 µM) | relative viability ([4]; first compound 8 µM) |
| --- | --- | --- | --- | --- | --- | --- | --- | --- | --- | --- | --- | --- | --- | --- | --- | --- | --- | --- | --- | --- |
| 201T | 0.331 | 0.346 | 0.341 | 0.384 | 0.352 | 0.544 | 0.603 | 0.575 | 0.54 | 0.493 | 0.355 | 0.382 | 0.347 | 0.331 | 0.315 | 0.988 | 0.961 | 0.908 | 0.946 | 0.879 |
| A-427 | 0.558 | 0.5 | 0.508 | 0.505 | 0.465 | 0.741 | 0.698 | 0.653 | 0.791 | 0.679 | 1.06 | 0.993 | 1 | 0.955 | 0.926 | 0.887 | 0.86 | 0.89 | 0.872 | 0.873 |
| ABC-1 | 0.775 | 0.795 | 0.588 | 0.545 | 0.569 | 0.619 | 0.617 | 0.557 | 0.605 | 0.577 | – | – | – | – | – | 1.34 | 1.21 | 1.1 | 0.895 | 1.14 |
| BEN | 0.49 | 0.485 | 0.492 | 0.467 | 0.454 | 0.307 | 0.284 | 0.396 | 0.487 | 0.336 | 0.778 | 0.79 | 0.707 | 0.78 | 0.795 | 0.577 | 0.609 | 0.578 | 0.603 | 0.575 |
| CAL-12T | 0.436 | 0.431 | 0.208 | 0.524 | 0.43 | 0.488 | 0.48 | 0.421 | 0.363 | 0.304 | 1.17 | 1.22 | 1.14 | 1.34 | 1.25 | 0.989 | 0.715 | 0.808 | 0.93 | 0.82 |
| COR-L23 | 0.321 | 0.329 | 0.379 | 0.269 | 0.326 | 0.54 | 0.469 | 0.596 | 0.423 | 0.566 | 0.205 | 0.2 | 0.193 | 0.196 | 0.19 | 0.539 | 0.44 | 0.468 | 0.407 | 0.396 |
| COR-L 105 | 0.407 | 0.4 | 0.362 | 0.379 | 0.407 | 0.394 | 0.369 | 0.307 | 0.314 | 0.328 | 1.21 | 1.01 | 0.895 | 0.892 | 0.939 | 0.782 | 0.81 | 0.753 | 1.1 | 0.66 |
| ChaGo-K-1 | 0.918 | 0.905 | 0.971 | 0.94 | 0.839 | 0.579 | 0.61 | 0.601 | 0.567 | 0.582 | 0.251 | 0.267 | 0.259 | 0.258 | 0.265 | 0.753 | 0.737 | 0.795 | 0.738 | 0.777 |
